Measured values as given in ChEMBL document CHEMBL5608169, “A chemical modification of a peroxisome proliferator-activated receptor pan agonist produced a shift to a new dual alpha/gamma partial agonist endowed with mitochondrial pyruvate carrier inhibition and antidiabetic properties” (Eur J Med Chem, 2024).
Blank lines part the entries; values can stand above or below the molecule they belong to. Activity calls are given as the source filed them. The rule behind the calls is not given here.

Key:
Mus musculus [1] = experiment: Antihyperglycemic activity in STZ-induced diabetic Swiss albino mouse model assessed as fasting blood glucose at 30 mg/kg, po and measured immediately by glucose meter analysis (reference value: 365 +/-54.25 mg/dl); format: functional
Mus musculus [2] = experiment: Antihyperglycemic activity in STZ-induced diabetic Swiss albino mouse model assessed as high-density lipoprotein cholesterol level at 30 mg/kg, po by biochemical analysis (reference value: 43.33 +/-[…]); format: functional
Mus musculus [3] = experiment: Antihyperglycemic activity in STZ-induced diabetic Swiss albino mouse model assessed as total cholesterol level at 30 mg/kg, po by biochemical analysis (reference value: 184.33 +/- […]); format: functional
Mus musculus [4] = experiment: Antihyperglycemic activity in STZ-induced diabetic Swiss albino mouse model assessed as triglyceride level at 30 mg/kg, po by biochemical analysis (reference value: 139.33 +/- 0.88 mg/dl); format: functional
Mus musculus [5] = experiment: Antihyperglycemic activity in STZ-induced diabetic Swiss albino mouse model assessed as very low-density lipoprotein cholesterol level at 30 mg/kg, po by biochemical analysis (reference value: 27.77 +/- 0.15 mg/dl); format: functional
Mus musculus [6] = experiment: Antihyperglycemic activity in STZ-induced diabetic Swiss albino mouse model assessed as fasting blood glucose at 30 mg/kg, po measured after 5 days by glucose meter analysis (reference value: […] +/- 63.77 mg/dl); format: functional; conditions: time 5 day
Mus musculus [7] = experiment: Antihyperglycemic activity in STZ-induced diabetic Swiss albino mouse model assessed as fasting blood glucose at 30 mg/kg, po measured after 15 days by glucose meter analysis (reference value: 452.6 +/-48.94 mg/dl); format: functional; conditions: time 15 day
Mus musculus [8] = experiment: Antihyperglycemic activity in STZ-induced diabetic Swiss albino mouse model assessed as low-density lipoprotein cholesterol level at 30 mg/kg, po by biochemical analysis (reference value: 113.33 +/- 0.35 mg/dl); format: functional
Mus musculus [9] = experiment: Antihyperglycemic activity in STZ-induced diabetic Swiss albino mouse model assessed as fasting blood glucose at 30 mg/kg, po measured after 10 days by glucose meter analysis (reference value: 435.2 +/-46.89 mg/dl); format: functional; conditions: time 10 day
C2C12 [10] = experiment: Inhibition of mitochondrial pyruvate carrier in mouse C2C12 cells assessed as effect on oxygen consumption rate at 10 uM incubated for 24 hrs by Seahorse XF pro analyzer; format: functional, cell-based
C2C12 [11] = experiment: Inhibition of mitochondrial pyruvate carrier in mouse C2C12 cells assessed as increase of extracellular acidification rate at 10 uM incubated for 24 hrs by Seahorse XF pro analyzer; format: functional, cell-based
C2C12 [12] = experiment: Inhibition of mitochondrial pyruvate carrier in mouse C2C12 cells assessed as effect on ATP production at 10 uM incubated for 24 hrs by Seahorse XF pro analyzer; format: functional, cell-based
C2C12 [13] = experiment: Inhibition of mitochondrial pyruvate carrier in mouse C2C12 cells assessed as increase in OCR/ECAR ratio at 10 uM incubated for 24 hrs by Seahorse XF pro analyzer; format: functional, cell-based
HepG2 = experiment: Inhibition of lipid accumulation in oleic acid induced human HepG2 cells at 10 uM pretreated with oleic-acid for 24 hrs followed by compound addition and measured after 72 hrs by Oil Red O staining based analysis; format: functional, cell-based
[14] = molecular target: T1, Peroxisome proliferator-activated receptor delta (Homo sapiens, UniProt Q03181); experiment: Partial agonist activity at N-terminal Gal4-fused human PPARdelta LBD transfected in human HepG2 cells assessed as receptor transactivation incubated for 20 hrs by luciferase based luminometric assay; format: cell-based
T1 sequence (Q03181 whole entry): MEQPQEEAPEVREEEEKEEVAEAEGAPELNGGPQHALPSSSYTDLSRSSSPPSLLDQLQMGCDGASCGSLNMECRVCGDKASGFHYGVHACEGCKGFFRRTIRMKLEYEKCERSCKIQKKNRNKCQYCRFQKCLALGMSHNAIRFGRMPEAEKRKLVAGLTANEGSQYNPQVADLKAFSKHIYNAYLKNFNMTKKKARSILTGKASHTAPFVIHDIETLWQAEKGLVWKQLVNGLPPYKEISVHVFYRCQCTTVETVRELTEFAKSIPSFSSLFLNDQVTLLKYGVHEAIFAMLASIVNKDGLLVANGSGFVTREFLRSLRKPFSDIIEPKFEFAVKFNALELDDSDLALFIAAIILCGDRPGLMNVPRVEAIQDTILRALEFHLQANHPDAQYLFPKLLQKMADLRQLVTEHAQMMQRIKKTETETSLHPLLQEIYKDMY

[15] = molecular target: T2, Peroxisome proliferator-activated receptor alpha (Homo sapiens, UniProt Q07869); experiment: Partial agonist activity at N-terminal Gal4-fused human PPARalpha LBD transfected in human HepG2 cells assessed as receptor transactivation incubated for 20 hrs by luciferase based luminometric assay; format: cell-based
T2 sequence (Q07869 whole entry): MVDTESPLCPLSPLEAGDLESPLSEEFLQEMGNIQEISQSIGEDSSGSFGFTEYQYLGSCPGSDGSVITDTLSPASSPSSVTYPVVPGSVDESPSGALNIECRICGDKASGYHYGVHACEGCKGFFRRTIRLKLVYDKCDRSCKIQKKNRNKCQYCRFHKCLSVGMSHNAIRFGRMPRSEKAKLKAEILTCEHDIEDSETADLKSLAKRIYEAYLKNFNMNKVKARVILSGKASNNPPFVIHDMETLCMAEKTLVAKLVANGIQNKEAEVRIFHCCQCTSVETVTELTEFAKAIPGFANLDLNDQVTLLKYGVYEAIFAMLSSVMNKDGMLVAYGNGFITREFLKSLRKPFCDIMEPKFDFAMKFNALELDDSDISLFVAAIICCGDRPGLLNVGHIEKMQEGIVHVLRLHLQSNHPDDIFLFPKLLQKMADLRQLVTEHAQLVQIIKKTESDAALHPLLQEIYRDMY

[16] = molecular target: T3, Peroxisome proliferator-activated receptor gamma (Homo sapiens, UniProt P37231); experiment: Partial agonist activity at N-terminal Gal4-fused human PPARgamma LBD transfected in human HepG2 cells assessed as receptor transactivation incubated for 20 hrs by luciferase based luminometric assay; format: cell-based
T3 sequence (P37231 whole entry): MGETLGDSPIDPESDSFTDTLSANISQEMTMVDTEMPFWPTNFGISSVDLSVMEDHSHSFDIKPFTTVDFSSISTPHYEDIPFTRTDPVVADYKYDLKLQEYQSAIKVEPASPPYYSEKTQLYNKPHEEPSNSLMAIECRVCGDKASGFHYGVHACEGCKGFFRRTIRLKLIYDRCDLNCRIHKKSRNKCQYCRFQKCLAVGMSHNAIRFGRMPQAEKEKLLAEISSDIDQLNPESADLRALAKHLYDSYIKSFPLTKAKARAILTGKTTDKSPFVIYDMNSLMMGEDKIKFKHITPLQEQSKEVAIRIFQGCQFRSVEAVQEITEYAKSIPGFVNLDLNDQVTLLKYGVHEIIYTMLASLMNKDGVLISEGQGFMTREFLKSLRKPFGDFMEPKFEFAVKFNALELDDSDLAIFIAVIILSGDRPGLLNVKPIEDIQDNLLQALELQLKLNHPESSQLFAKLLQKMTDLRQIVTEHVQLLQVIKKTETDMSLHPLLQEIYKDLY

EC50 [15]: 460 nM | EC50 [16]: 10000 nM
SMILES: CCC(Oc1ccc(-c2cccc3ccccc23)cc1)C(=O)O (racemic)

EC50 [15]: 1800 nM
SMILES: C[C@H](Oc1ccc(-c2cccc3ccccc23)cc1)C(=O)O

EC50 [15]: 183 nM | EC50 [16]: 11000 nM
SMILES: CC[C@H](Oc1ccc(-c2cccc3ccccc23)cc1)C(=O)O.NC1CCCCC1

EC50 [15]: 2300 nM
SMILES: C[C@@H](Oc1ccc(-c2cccc3ccccc23)cc1)C(=O)O

The next lines start with the molecule.

SMILES: CCc1ccc(CCOc2ccc(CC3SC(=O)NC3=O)cc2)nc1 (stereo not drawn) [PIOGLITAZONE]
Activity (Mus musculus [1]): 441.2 mg/dL | Activity (Mus musculus [2]): 19.67 mg/dL | Activity (Mus musculus [3]): 88.67 mg/dL | Activity (Mus musculus [4]): 98.33 mg/dL | Activity (Mus musculus [5]): 19.33 mg/dL | Activity (Mus musculus [6]): 351 mg/dL | Activity (Mus musculus [7]): 224.2 mg/dL | Activity (Mus musculus [8]): 20.5 mg/dL | Activity (Mus musculus [9]): 248 mg/dL

SMILES: CN(CCOc1ccc(CC2SC(=O)NC2=O)cc1)c1ccccn1 (stereo not drawn)
inhibition (C2C12 [10]): inactive | inhibition (C2C12 [11]): inactive | inhibition (C2C12 [12]): inactive | inhibition (C2C12 [13]): inactive | inhibition (HepG2): Active

SMILES: CCCc1c(OCCCOc2ccc(OCC(=O)O)cc2)ccc(C(C)=O)c1O
EC50 [14]: 1600 nM

SMILES: CC[C@@H](Oc1ccc(-c2cccc3ccccc23)cc1)C(=O)O.NC1CCCCC1
EC50 [15]: 1420 nM | EC50 [16]: 7300 nM
